# Test results taken from US8409618B2, “Odor-reducing quinone compounds” (Kimberly-Clark Worldwide, Inc., priority 2002, dated 2013).
# Tests used:
# Set-up in all cases: species or system human
# [1] = Urine odor and secondary odor panel ranking, dye powders in urine, 8 millimolar (Example 7); conditions: for Average Urine Odor Ranking (with statistical corrections), Avg. Score: ignoring statistical anomalies; for Secondary Odor Ranking: scale 1 to 5, 5 extremely unpleasant, individual panelists' scores
# Description: (§1) Qualitative odor reduction was also assessed against common odors, such as garlic and urine. Specifically, panelists assessed odorant-containing jars by carefully unscrewing, and then raising the lid of each jar in a controlled manner, such that the odor was not diluted by the ambient air. The jars were wrapped and coded to ensure that the sample identity was unknown.
# The effectiveness of various dyes in reducing urine odor was compared. […] Human female urine was initially collected and pooled by a nurse on staff at Kimberly-Clark Corporation. The pooled urine was added to mason jars in 50-milliliter aliquots using an automated pipette aid. Powders of the aforementioned dyes (commercially available from Sigma-Aldrich Chemical Co., Inc. of St. Louis, Mo. and Noveon Hilton Davis, Inc. of Cincinnati, Ohio) were weighed and placed into the mason jars containing 50 milliliters of urine so that the final concentration of the dye powder was 8 millimolar (equivalent to 0.5 wt. %). The mason jars were placed in an incubator overnight at 37° C.
# To aid in the assessment of the dyes, the mason jars were divided into two groups for a morning assessment, and the best of both groups were compared in an afternoon assessment (after a total of 24 hours). In addition to ranking the jars from least to most malodorous (on a scale from 1 to 7, with 7 being the most malodors), panelists were also asked to judge whether there were secondary (non-urine) odors present and, if so, the extent that the secondary odors were unpleasant (on a scale from 1 to 5, with 5 being extremely unpleasant).
# In this assessment, panelists were given instructions to rank the least malodorous jar as “1” and the most malodorous jar as “10,” remaining free to rank the other jars between 2-9.
# [2] = Urine odor panel ranking, dye-coated Poise pads without SN-AK (Example 8); conditions: for Secondary Odor Ranking: scale of 1-5; for Average Urine Odor Ranking, Avg. Score / overall urine odor control performance (panel): final pooled assessment; for urine odor reduction (panel), assessment within set: overnight 37° C.; for overall urine odor control performance (panel): top-sheet coating
# Description: as §1
# Specifically, Acid Green 25, Acid Green 41, Acid Blue 129, and D&C Green No. 5 were tested. Powders of the aforementioned dyes (commercially available from Sigma-Aldrich Chemical Co., Inc. of St. Louis, Mo. and Noveon Hilton Davis, Inc. of Cincinnati, Ohio) were dissolved in water so that the concentration of the dye was 8 millimolar (equivalent to 0.5 wt. %). Samples of tissue wrap were created by cutting 9″×6″ sheets from a roll of tissue (1 ply white cellulose wrap sheet having a basis weight of 16.6 grams per square meter) were weighed, oven-dried overnight at 90° C., and weighed again the next day to calculate the amount of residual water in each wrap. The wraps were then dipped into a respective dye solution and hung to dry overnight, after which they were weighed again. The treated wraps were then rinsed in deionized water to remove any unbound dye and hung again to dry overnight. After weighing the treated wraps, they were once again oven-dried overnight at 90° C. and weighed to determine the dry add-on percentages ([…]). The add-on percentage for each sample was approximately 1.6 wt. %.
# Two different sets of Poise® pads (commercially available from Kimberly-Clark Corp.) were tested. The first set of dye-coated tissue wraps (without SN-AK) was inserted around the pledgette area of the Poise® pads. The Poise® pads were cut open and the tissue wrap surrounding the pledgette carefully removed and replaced with dye-coated tissue wrap. The second set of dye-coated tissue wraps (without SN-AK) used dye coatings on the top of the pad (rather than inside). These pads were constructed by spreading the solution over the top of each pad. To prevent the superabsorbent area of the pad from soaking up the solution, the pads were cut open prior to coating and a layer of plastic wrap was placed between the top layer of the pad and the superabsorbent core. A pad that was cut open, but coated only with water on top, was used as a control. All pads were dried at room temperature overnight before placing them in mason jars for testing. For control purposes, a Poise® pad was also tested that was cut open, but retained its original tissue wrap. In addition, Serenity® Night & Day™ incontinence pads, which are commercially available from SCA Incontinence Care of Eddystone, Pa. and said to employ OdaSorb Plus™ to reduce odor, were also used for comparison.
# Fresh human female urine was then pooled, and 50-milliliter aliquots were applied to the pads using a pipette. The mason jars were placed in a 37° C. incubator overnight for assessment the next day. […] Panelists were again asked to rank any secondary odors for unpleasantness on a scale of 1-5.
# [3] = Urine odor panel ranking, dye powders in urine, 8 millimolar (Example 5); conditions: 8 millimolar dye in urine
# Description: as §1, with “unknown. The effectiveness of various quinone dyes in reducing urine odor was compared. Human female urine was initially collected and pooled by a nurse on staff at Kimberly-Clark Corporation.” for “unknown.”
# [4] = First Grouping, morning assessment, 8 millimolar, 7 most malodorous
# [5] = First Grouping, scale 1 to 7, 7 most malodorous
# [6] = Second Grouping, morning assessment, 8 millimolar, higher = more malodorous
# [7] = After 24 Hours, top performers of both groupings, 1 least, 10 most malodorous
# [8] = after 24 hours, top performers of both groupings
# [9] = after 24 hours, top performers, 1 least, 10 most malodorous
# [10] = 1st set (tissue-wrap coating), After 30 Hours
# [11] = 2nd set (top-sheet coating), After 30 Hours
# [12] = first set of pads (dye-coated tissue wrap around pledgette)
# [13] = second set of pads (dye coating on top of pad)
# [14] = After 6 Hours, 10 most, 1 least malodorous
# [15] = After 24 Hours, 10 most, 1 least malodorous
molecule,measurement,setting,value
"1,2 naphthaquinone-2-sulfonic acid potassium salt",Urine Odor Ranking (number of panelists): ranking 2,[1]; [4],1 number of panelists
same,Urine Odor Ranking (number of panelists): ranking 3,[1]; [4],2 number of panelists
same,Urine Odor Ranking (number of panelists): ranking 4,[1]; [4],1 number of panelists
same,Urine Odor Ranking (number of panelists): ranking 7,[1]; [4],1 number of panelists
same,"Average Urine Odor Ranking, Avg. Score",[1]; [5],3.8
same,secondary (non-urine) odor (panel),[1]; first grouping,an unpleasant secondary smell was found to be present
same,urine odor reduction (panel),[1]; first grouping,effectively reduced urine odor
"O=C1C=C(S(=O)(=O)[O-])C(=O)c2ccccc21.[K+] [1,4 Naphthaquinone, 1,4 naphthaquinone-2-sulfonic acid potassium salt]","Average Urine Odor Ranking, Avg. Score",[1]; Second Grouping,1.8
same,secondary (non-urine) odor (panel),[1]; Second Grouping,unpleasant secondary odor
same,Urine Odor Ranking (number of panelists): ranking 1,[1]; [6],2 number of panelists
same,Urine Odor Ranking (number of panelists): ranking 2,[1]; [6],2 number of panelists
same,Urine Odor Ranking (number of panelists): ranking 3,[1]; [6],1 number of panelists
Nc1cc(S(=O)(=O)[O-])c(O)c2c1C(=O)c1c(O)c(S(=O)(=O)[O-])cc(N)c1C2=O.[Na+].[Na+] [Acid Blue 45],"Average Urine Odor Ranking, Avg. Score",[1]; Second Grouping,3.4
same,Urine Odor Ranking (number of panelists): ranking 2,[1]; [6],1 number of panelists
same,Urine Odor Ranking (number of panelists): ranking 3,[1]; [6],2 number of panelists
same,Urine Odor Ranking (number of panelists): ranking 4,[1]; [6],1 number of panelists
same,Urine Odor Ranking (number of panelists): ranking 5,[1]; [6],1 number of panelists
Cc1ccc(Nc2ccc(Nc3ccc(C)cc3S(=O)(=O)[O-])c3c2C(=O)c2ccccc2C3=O)c(S(=O)(=O)[O-])c1.[Na+].[Na+] [Acid Green 25],Urine Odor Ranking (number of panelists): ranking 1,[1]; [7],3 number of panelists
same,Urine Odor Ranking (number of panelists): ranking 2,[1]; [7],1 number of panelists
same,Urine Odor Ranking (number of panelists): ranking 10,[1]; [7],1 number of panelists
same,Urine Odor Ranking (number of panelists): ranking 1,[1]; [4],3 number of panelists
same,Urine Odor Ranking (number of panelists): ranking 2,[1]; [4],1 number of panelists
same,Urine Odor Ranking (number of panelists): ranking 6,[1]; [4],1 number of panelists
same,"Average Urine Odor Ranking, Avg. Score",[1]; [5],2.2
same,"Average Urine Odor Ranking, Avg. Score",[1]; Second Grouping,4.4
same,urine odor reduction (panel),[1]; [8],achieved the best odor reduction
same,"Average Urine Odor Ranking, Avg. Score",[1]; [9],3.0
same,"Average Urine Odor Ranking (with statistical corrections), Avg. Score","[1]; after 24 hours, top performers",1.3
same,secondary (non-urine) odor (panel),[1]; first grouping,not found to be unpleasant by most panelists
same,urine odor reduction (panel),[1]; first grouping,functioned effectively to reduce odor
same,Urine Odor Ranking (number of panelists): ranking 3,[2]; [10],1 number of panelists
same,Urine Odor Ranking (number of panelists): ranking 4,[2]; [10],1 number of panelists
same,Urine Odor Ranking (number of panelists): ranking 5,[2]; [10],1 number of panelists
same,Urine Odor Ranking (number of panelists): ranking 6,[2]; [10],1 number of panelists
same,Secondary Odor Ranking,[2]; [10],4
same,"Average Urine Odor Ranking, Avg. Score",[2]; 1st set (tissue-wrap coating),4.50
same,Urine Odor Ranking (number of panelists): ranking 1,[2]; [11],3 number of panelists
same,Urine Odor Ranking (number of panelists): ranking 7,[2]; [11],1 number of panelists
same,"Average Urine Odor Ranking, Avg. Score",[2]; 2nd set (top-sheet coating),2.50
same,"urine odor reduction (panel), assessment within set",[2]; [12],performed best for the first set of pads
same,"urine odor reduction (panel), assessment within set",[2]; [13],performed best for the second set of pads
same,overall urine odor control performance (panel),[2],best performer overall
CCCCc1ccc(Nc2ccc(Nc3ccc(CCCC)cc3S(=O)(=O)[O-])c3c2C(=O)c2ccccc2C3=O)c(S(=O)(=O)[O-])c1.[Na+].[Na+] [Acid Green 27],Urine Odor Ranking (number of panelists): ranking 2,[1]; [7],1 number of panelists
same,Urine Odor Ranking (number of panelists): ranking 8,[1]; [7],2 number of panelists
same,Urine Odor Ranking (number of panelists): ranking 9,[1]; [7],1 number of panelists
same,Urine Odor Ranking (number of panelists): ranking 10,[1]; [7],1 number of panelists
same,Secondary Odor Ranking,[1]; After 24 Hours,4
same,"Average Urine Odor Ranking, Avg. Score",[1]; Second Grouping,3.6
same,Urine Odor Ranking (number of panelists): ranking 2,[1]; [6],2 number of panelists
same,Urine Odor Ranking (number of panelists): ranking 4,[1]; [6],1 number of panelists
same,Urine Odor Ranking (number of panelists): ranking 5,[1]; [6],2 number of panelists
same,Secondary Odor Ranking,[1]; Second Grouping,2
same,"Average Urine Odor Ranking, Avg. Score",[1]; [9],6.4
same,"Average Urine Odor Ranking (with statistical corrections), Avg. Score","[1]; after 24 hours, top performers",8.8
same,urine malodor reduction (panel),[3]; 6 and 24 hours,functioned effectively in reducing urine malodor
same,Avg. Ranking (odor),[3]; [14],4.4
same,Ranking (number of panelists): ranking 4,[3]; [14],3 number of panelists
same,Ranking (number of panelists): ranking 5,[3]; [14],2 number of panelists
same,Avg. Ranking (odor),[3]; [15],4.5
same,Ranking (number of panelists): ranking 1,[3]; [15],1 number of panelists
same,Ranking (number of panelists): ranking 3,[3]; [15],2 number of panelists
same,Ranking (number of panelists): ranking 7,[3]; [15],3 number of panelists
Cc1ccc(Nc2ccc(Nc3ccc(C)cc3S(=O)(=O)[O-])c3c2C(=O)c2c(O)ccc(O)c2C3=O)c(S(=O)(=O)[O-])c1.[Na+].[Na+] [Acid Green 41],Urine Odor Ranking (number of panelists): ranking 1,[1]; [7],1 number of panelists
same,Urine Odor Ranking (number of panelists): ranking 2,[1]; [7],2 number of panelists
same,Urine Odor Ranking (number of panelists): ranking 3,[1]; [7],1 number of panelists
same,Urine Odor Ranking (number of panelists): ranking 7,[1]; [7],1 number of panelists
same,Urine Odor Ranking (number of panelists): ranking 1,[1]; [4],1 number of panelists
same,Urine Odor Ranking (number of panelists): ranking 2,[1]; [4],2 number of panelists
same,Urine Odor Ranking (number of panelists): ranking 3,[1]; [4],1 number of panelists
same,Urine Odor Ranking (number of panelists): ranking 4,[1]; [4],1 number of panelists
same,Secondary Odor Ranking,[1]; First Grouping,1
same,"Average Urine Odor Ranking, Avg. Score",[1]; [5],2.4
same,urine odor reduction (panel),[1]; [8],achieved the best odor reduction
same,"Average Urine Odor Ranking, Avg. Score",[1]; [9],3.0
same,"Average Urine Odor Ranking (with statistical corrections), Avg. Score","[1]; after 24 hours, top performers",2.0
same,urine odor reduction (panel),[1]; first grouping,functioned effectively to reduce odor
same,"Average Urine Odor Ranking, Avg. Score",[2]; 1st set (tissue-wrap coating),4.50
same,Urine Odor Ranking (number of panelists): ranking 2,[2]; [11],2 number of panelists
same,Urine Odor Ranking (number of panelists): ranking 3,[2]; [11],1 number of panelists
same,Urine Odor Ranking (number of panelists): ranking 4,[2]; [11],1 number of panelists
same,Secondary Odor Ranking,[2]; [11],1
same,"Average Urine Odor Ranking, Avg. Score",[2]; 2nd set (top-sheet coating),2.75
same,"urine odor reduction (panel), assessment within set",[2]; [12],performed best for the first set of pads
same,"urine odor reduction (panel), assessment within set",[2]; [13],performed best for the second set of pads
same,overall urine odor control performance (panel),[2],"best performer overall, followed by Acid Green 41"
"CCN(Cc1cccc(S(=O)(=O)[O-])c1)c1ccc(C(=C2C=CC(=[N+](CC)Cc3cccc(S(=O)(=O)[O-])c3)C=C2)c2ccccc2S(=O)(=O)[O-])cc1.[Na+].[Na+] [FD&C Blue No. 1, reference compound]",Urine Odor Ranking (number of panelists): ranking 4,[1]; [4],1 number of panelists
same,Urine Odor Ranking (number of panelists): ranking 5,[1]; [4],4 number of panelists
same,Secondary Odor Ranking,[1]; First Grouping,3
same,"Average Urine Odor Ranking, Avg. Score",[1]; [5],4.8
